# Values quoted from earlier work in US20230117831A1, “MULTI-FUNCTIONAL CHIMERIC MOLECULES” (THE BROAD INSTITUTE, INC., priority 2020, published 2023).
# Where “and” joins values, the source holds several entries; their conditions need not be identical. Equal values may be shown once.
# How the values were obtained:
# PKCalpha = PKCalpha (Homo sapiens, UniProt P17252); settings: PKC alpha; read-out: Kd; cited from earlier work
# AurA (AURKA) = target: T1, AurA (AURKA) (Homo sapiens, UniProt O14965); settings: cited from earlier work
# T1 sequence (O14965 1-403): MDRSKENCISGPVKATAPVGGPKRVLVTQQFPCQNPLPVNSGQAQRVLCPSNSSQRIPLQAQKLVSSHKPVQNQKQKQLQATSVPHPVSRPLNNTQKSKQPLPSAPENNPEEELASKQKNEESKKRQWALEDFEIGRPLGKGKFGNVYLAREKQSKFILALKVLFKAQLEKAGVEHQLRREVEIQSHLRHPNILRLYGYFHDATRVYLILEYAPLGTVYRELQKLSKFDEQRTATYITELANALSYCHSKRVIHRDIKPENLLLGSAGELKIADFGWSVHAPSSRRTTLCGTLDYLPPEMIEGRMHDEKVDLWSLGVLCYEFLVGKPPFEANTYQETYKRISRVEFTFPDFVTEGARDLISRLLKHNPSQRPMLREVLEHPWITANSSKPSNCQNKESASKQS
# AurB (AURKB) = AurB (AURKB) (Homo sapiens, UniProt Q96GD4); settings: cited from earlier work
# PIK3Cα/PIK3R1 = PIK3Cα/PIK3R1 (Homo sapiens, UniProt P42336); settings: cited from earlier work
# PIK3Cγ = PIK3Cγ (Homo sapiens, UniProt P48736); settings: cited from earlier work
# PIK3Cδ/PIK3R1 = PIK3Cδ/PIK3R1 (Homo sapiens, UniProt O00329); settings: cited from earlier work
# Sequence of PIK3Cδ/PIK3R1 (O00329 whole entry): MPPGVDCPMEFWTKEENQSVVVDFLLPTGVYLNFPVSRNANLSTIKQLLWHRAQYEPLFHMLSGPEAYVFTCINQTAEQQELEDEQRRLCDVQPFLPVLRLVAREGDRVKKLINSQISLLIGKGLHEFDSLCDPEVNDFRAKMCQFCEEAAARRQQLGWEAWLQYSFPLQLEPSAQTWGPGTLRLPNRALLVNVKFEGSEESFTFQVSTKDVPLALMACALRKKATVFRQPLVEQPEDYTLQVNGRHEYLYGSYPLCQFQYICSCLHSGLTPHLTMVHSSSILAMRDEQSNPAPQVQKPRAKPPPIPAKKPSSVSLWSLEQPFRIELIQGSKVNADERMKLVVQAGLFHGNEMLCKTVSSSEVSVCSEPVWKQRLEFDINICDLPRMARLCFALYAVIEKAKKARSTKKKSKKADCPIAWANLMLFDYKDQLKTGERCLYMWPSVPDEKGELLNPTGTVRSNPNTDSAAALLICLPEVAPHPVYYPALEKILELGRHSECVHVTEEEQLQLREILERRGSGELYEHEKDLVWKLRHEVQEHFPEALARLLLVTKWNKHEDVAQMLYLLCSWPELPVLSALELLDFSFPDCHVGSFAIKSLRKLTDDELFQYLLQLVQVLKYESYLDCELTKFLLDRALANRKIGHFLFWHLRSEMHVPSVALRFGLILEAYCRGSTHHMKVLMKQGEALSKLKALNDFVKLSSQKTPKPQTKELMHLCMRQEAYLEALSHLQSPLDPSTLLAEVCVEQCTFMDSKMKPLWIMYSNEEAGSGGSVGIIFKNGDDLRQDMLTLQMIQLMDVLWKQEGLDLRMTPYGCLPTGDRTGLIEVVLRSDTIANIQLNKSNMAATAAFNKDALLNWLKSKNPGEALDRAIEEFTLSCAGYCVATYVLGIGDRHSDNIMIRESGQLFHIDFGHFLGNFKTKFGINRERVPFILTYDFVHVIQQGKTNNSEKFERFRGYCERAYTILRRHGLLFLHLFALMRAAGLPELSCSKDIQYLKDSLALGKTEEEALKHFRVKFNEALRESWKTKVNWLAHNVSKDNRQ
# Sequence of PIK3Cδ/PIK3R1 (P27986 whole entry partner): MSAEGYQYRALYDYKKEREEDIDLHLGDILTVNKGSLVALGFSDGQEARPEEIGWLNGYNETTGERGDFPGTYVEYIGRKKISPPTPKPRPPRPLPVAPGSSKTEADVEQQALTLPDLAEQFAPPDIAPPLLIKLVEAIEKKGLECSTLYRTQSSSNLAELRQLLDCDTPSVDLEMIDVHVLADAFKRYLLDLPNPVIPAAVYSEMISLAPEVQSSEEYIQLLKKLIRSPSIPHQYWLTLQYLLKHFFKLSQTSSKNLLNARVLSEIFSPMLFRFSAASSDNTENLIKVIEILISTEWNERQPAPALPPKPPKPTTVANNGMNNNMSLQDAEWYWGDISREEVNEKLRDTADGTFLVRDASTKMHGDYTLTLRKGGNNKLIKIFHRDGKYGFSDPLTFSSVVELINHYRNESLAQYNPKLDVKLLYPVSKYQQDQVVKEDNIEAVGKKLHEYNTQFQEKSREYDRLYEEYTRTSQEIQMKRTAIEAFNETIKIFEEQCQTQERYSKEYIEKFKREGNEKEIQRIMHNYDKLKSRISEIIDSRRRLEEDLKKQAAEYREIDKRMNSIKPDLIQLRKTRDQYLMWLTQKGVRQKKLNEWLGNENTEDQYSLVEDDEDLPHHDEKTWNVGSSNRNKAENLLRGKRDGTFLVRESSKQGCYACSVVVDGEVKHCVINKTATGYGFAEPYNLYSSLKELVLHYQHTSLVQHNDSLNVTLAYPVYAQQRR
# Sequence of PIK3Cα/PIK3R1 (P42336 whole entry): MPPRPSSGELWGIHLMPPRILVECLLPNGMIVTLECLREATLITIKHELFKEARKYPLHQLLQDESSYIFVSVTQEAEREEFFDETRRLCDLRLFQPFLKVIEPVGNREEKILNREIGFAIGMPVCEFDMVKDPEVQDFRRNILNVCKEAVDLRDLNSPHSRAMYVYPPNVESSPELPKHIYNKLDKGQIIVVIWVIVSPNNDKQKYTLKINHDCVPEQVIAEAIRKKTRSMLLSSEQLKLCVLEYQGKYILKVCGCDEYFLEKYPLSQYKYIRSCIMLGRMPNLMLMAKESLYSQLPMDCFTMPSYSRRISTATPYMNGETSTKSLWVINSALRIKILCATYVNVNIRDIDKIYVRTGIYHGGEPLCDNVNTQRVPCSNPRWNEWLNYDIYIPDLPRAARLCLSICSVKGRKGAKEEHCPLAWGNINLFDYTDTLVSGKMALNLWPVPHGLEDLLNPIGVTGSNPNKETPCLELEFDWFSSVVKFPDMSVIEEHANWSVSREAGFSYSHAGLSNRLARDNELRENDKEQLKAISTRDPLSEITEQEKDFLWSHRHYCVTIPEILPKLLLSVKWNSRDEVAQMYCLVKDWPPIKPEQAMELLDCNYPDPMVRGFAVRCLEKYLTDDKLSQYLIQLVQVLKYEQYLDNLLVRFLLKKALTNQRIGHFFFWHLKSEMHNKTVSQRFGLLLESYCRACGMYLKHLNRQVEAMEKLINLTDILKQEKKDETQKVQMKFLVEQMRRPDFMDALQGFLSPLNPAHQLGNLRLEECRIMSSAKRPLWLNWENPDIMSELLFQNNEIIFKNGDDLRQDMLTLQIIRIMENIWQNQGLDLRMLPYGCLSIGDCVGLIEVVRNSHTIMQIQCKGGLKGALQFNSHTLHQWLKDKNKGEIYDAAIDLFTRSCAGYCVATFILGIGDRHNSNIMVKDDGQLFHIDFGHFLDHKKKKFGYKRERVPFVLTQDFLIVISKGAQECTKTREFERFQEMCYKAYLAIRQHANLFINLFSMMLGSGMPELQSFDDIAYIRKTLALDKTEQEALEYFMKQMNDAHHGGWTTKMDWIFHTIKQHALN
# Sequence of PIK3Cα/PIK3R1 (P27986 whole entry partner): as the sequence (P27986 whole entry partner) above
# Sequence of PIK3Cγ (P48736 whole entry): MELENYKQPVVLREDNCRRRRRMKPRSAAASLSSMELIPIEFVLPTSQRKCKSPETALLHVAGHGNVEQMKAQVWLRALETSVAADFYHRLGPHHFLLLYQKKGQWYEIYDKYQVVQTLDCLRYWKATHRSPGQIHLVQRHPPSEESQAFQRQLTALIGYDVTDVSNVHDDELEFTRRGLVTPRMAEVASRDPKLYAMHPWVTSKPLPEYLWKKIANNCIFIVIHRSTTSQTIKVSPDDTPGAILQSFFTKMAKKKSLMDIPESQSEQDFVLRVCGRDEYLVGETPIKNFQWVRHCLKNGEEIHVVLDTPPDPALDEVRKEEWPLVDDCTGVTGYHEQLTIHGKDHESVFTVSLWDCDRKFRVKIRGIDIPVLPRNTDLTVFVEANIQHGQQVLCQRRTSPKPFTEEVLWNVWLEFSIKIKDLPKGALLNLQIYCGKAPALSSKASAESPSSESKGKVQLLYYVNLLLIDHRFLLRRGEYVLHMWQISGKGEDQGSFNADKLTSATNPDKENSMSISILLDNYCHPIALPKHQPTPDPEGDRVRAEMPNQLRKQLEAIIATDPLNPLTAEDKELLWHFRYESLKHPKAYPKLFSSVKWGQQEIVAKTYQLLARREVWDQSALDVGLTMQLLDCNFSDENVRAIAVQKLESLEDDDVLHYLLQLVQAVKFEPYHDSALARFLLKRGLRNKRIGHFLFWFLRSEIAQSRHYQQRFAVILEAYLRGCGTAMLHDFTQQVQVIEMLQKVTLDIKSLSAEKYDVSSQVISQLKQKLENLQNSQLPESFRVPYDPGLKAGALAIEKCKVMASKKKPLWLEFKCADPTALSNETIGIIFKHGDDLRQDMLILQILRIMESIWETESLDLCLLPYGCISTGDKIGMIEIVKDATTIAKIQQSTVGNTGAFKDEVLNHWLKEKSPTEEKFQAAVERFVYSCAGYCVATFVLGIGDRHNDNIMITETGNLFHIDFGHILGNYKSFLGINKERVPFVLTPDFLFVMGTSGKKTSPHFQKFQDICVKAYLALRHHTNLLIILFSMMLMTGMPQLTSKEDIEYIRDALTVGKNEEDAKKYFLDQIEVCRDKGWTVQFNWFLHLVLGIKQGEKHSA
# Sequence of AurB (AURKB) (Q96GD4 whole entry, species assumed): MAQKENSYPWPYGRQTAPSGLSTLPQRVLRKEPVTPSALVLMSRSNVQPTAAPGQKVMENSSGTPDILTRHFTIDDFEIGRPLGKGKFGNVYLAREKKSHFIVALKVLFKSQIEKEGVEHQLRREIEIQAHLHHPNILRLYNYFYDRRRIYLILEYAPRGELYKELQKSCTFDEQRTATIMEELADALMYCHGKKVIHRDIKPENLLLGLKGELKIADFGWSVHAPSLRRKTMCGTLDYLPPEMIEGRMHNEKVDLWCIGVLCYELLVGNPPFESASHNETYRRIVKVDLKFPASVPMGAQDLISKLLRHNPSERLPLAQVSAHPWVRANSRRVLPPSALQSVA
smiles,measurement,setting,value
CC(C)[C@H]1C(=O)N[C@H](CO)Cc2ccc(-c3ccc(NC(=O)OC(C)(C)C)cc3)cc2N1C,Kd,PKCalpha,31.5 nM
CC(C)[C@H]1C(=O)N[C@H](CO)Cc2ccc(NC(=O)c3ccccc3)cc2N1C,Kd,PKCalpha,174 nM
CC(C)[C@H]1C(=O)N[C@H](CO)Cc2ccc(NC(=O)/C=C/c3ccccc3)cc2N1C,Kd,PKCalpha,114 nM
CC(C)[C@H]1C(=O)NC(CO)Cc2ccc(NC(=O)CCc3ccccc3)cc2N1C (some centres unmarked),Kd,PKCalpha,116 nM
CC(C)[C@H]1C(=O)N[C@H](CO)Cc2ccc(NC(=O)/C=C/C=C/c3ccccc3)cc2N1C,Kd,PKCalpha,49.8 nM
CC(C)[C@H]1C(=O)N[C@H](CO)Cc2ccc(NC(=O)CCCCc3ccccc3)cc2N1C,Kd,PKCalpha,18.3 nM
CC(C)[C@H]1C(=O)NC(CO)Cc2ccc(NC(=O)c3ccc(-c4ccccc4)cc3)cc2N1C (some centres unmarked),Kd,PKCalpha,25.9 nM
CCCCc1ccc(C(=O)Nc2ccc3c(c2)N(C)[C@@H](C(C)C)C(=O)NC(CO)C3)cc1 (some centres unmarked),Kd,PKCalpha,9.5 nM
CCCCC#Cc1cccc(C(=O)Nc2ccc3c(c2)N(C)[C@@H](C(C)C)C(=O)NC(CO)C3)c1 (some centres unmarked),Kd,PKCalpha,4.1 nM
CCCCCCCCc1cccc(C(=O)Nc2ccc3c(c2)N(C)[C@@H](C(C)C)C(=O)NC(CO)C3)c1 (some centres unmarked),Kd,PKCalpha,3.2 nM
CC(C)[C@H]1C(=O)NC(CO)Cc2ccc(NCc3ccccc3)cc2N1C (some centres unmarked),Kd,PKCalpha,3.8 nM
Cc1csc(-c2nnc(Nc3ccc(Oc4ncccc4-c4ccnc(N)n4)cc3)c3ccccc23)c1 [AMG900],ka,AurA (AURKA),220000 M⁻¹ s⁻¹
same,kd,AurA (AURKA),0.000261 s⁻¹
same,log(ka),AurA (AURKA),5.34
same,log(kd),AurA (AURKA),−3.58
same,Kd,AurB (AURKB),0.393 nM
same,ka,AurB (AURKB),58800 M⁻¹ s⁻¹
same,kd,AurB (AURKB),2.31e-05 s⁻¹
COc1ccc(-c2ccc3c(N4CCOC[C@@H]4C)nc(N4CCOC[C@@H]4C)nc3n2)cc1CO [AZD-8055],Kd,PIK3Cα/PIK3R1,9.4 nM
same,ka,PIK3Cα/PIK3R1,3.61e+06 M⁻¹ s⁻¹
same,kd,PIK3Cα/PIK3R1,0.0339 s⁻¹
same,log(ka),PIK3Cα/PIK3R1,6.56
same,log(kd),PIK3Cα/PIK3R1,−1.47
same,residence time (τ),PIK3Cα/PIK3R1,29 s
same,Kd,PIK3Cγ,92.5 nM
same,ka,PIK3Cγ,1.59e+06 M⁻¹ s⁻¹
same,kd,PIK3Cγ,0.147 s⁻¹
same,log(ka),PIK3Cγ,6.20
same,log(kd),PIK3Cγ,−0.83
same,residence time (τ),PIK3Cγ,7 s
same,Kd,PIK3Cδ/PIK3R1,33.6 nM
same,ka,PIK3Cδ/PIK3R1,1.93e+06 M⁻¹ s⁻¹
same,kd,PIK3Cδ/PIK3R1,0.065 s⁻¹
same,log(ka),PIK3Cδ/PIK3R1,6.29
same,log(kd),PIK3Cδ/PIK3R1,−1.19
same,residence time (τ),PIK3Cδ/PIK3R1,15 s
Cc1nc(NC(=O)N2CCC[C@H]2C(N)=O)sc1-c1ccnc(C(C)(C)C(F)(F)F)c1 [Alpelisib],ka,PIK3Cγ,4.05e+06 M⁻¹ s⁻¹
same,kd,PIK3Cγ,0.0395 s⁻¹
same,log(ka),PIK3Cγ,6.61
same,log(kd),PIK3Cγ,−1.40
same,ka,PIK3Cδ/PIK3R1,6.16e+06 M⁻¹ s⁻¹
same,kd,PIK3Cδ/PIK3R1,0.0641 s⁻¹
same,log(ka),PIK3Cδ/PIK3R1,6.79
same,log(kd),PIK3Cδ/PIK3R1,−1.19
Nc1cc(C(F)(F)F)c(-c2cc(N3CCOCC3)nc(N3CCOCC3)n2)cn1 [Buparlisib],ka,PIK3Cα/PIK3R1,3.26e+06 M⁻¹ s⁻¹
same,kd,PIK3Cα/PIK3R1,0.0209 s⁻¹
same,log(ka),PIK3Cα/PIK3R1,6.51
same,log(kd),PIK3Cα/PIK3R1,−1.68
Cn1c(=O)n(-c2ccc(C(C)(C)C#N)cc2)c2c3cc(-c4cnc5ccccc5c4)ccc3ncc21 [Dactolisib],ka,PIK3Cα/PIK3R1,2.3e+06 M⁻¹ s⁻¹
same,kd,PIK3Cα/PIK3R1,0.0228 s⁻¹
same,log(ka),PIK3Cα/PIK3R1,6.36
same,log(kd),PIK3Cα/PIK3R1,−1.64
same,ka,PIK3Cγ,589000 M⁻¹ s⁻¹
same,kd,PIK3Cγ,0.0433 s⁻¹
same,log(ka),PIK3Cγ,5.77
same,log(kd),PIK3Cγ,−1.36
same,ka,PIK3Cδ/PIK3R1,1.52e+06 M⁻¹ s⁻¹
same,kd,PIK3Cδ/PIK3R1,0.0327 s⁻¹
same,log(ka),PIK3Cδ/PIK3R1,6.16
same,log(kd),PIK3Cδ/PIK3R1,−1.49
CO[C@@H](C(=O)N1Cc2n[nH]c(NC(=O)c3ccc(N4CCN(C)CC4)cc3)c2C1)c1ccccc1 [Danusertib],ka,AurA (AURKA),512000 M⁻¹ s⁻¹
same,kd,AurA (AURKA),0.000868 s⁻¹
same,log(ka),AurA (AURKA),5.71
same,log(kd),AurA (AURKA),−3.06
CCn1cc(-c2ccnc3[nH]c(-c4cccc(CN(C)C)c4)cc23)c(-c2ccc(NC(=O)N(C)C)cc2)n1 [GSK1070916],Kd,AurB (AURKB),4.48 nM
same,ka,AurB (AURKB),14000 M⁻¹ s⁻¹
same,kd,AurB (AURKB),6.28e-05 s⁻¹
O=C(O)[C@]1(Cc2cccc(Nc3nccs3)n2)CC[C@@H](Oc2cccc(Cl)c2F)CC1 [MK5108],ka,AurA (AURKA),3.41e+06 M⁻¹ s⁻¹
same,kd,AurA (AURKA),0.0155 s⁻¹
same,log(ka),AurA (AURKA),6.53 and 6.56
same,log(kd),AurA (AURKA),−1.81
